{"source": "patent US20250361546A1", "about": "“SCREENING METHODS FOR RNA-CONTROLLING COMPOUNDS” (Veritas In Silico Inc., priority 2018, published 2025)", "assay_type_in_all_cases": "binding", "key": {"MGA-N_FAM/BHQ1": {"tested_on": "MGA-N_FAM/BHQ1", "assay": "FRET probe Tm measurement, single probe and 4-probe mixture (Example 5)", "settings": "100 μM compound", "protocol": "• FRET probe with FAM at the 5′ end and BHQ1 modification at the 3′ end\n(§1) The final levels were 50 nM RNA, 20 mM phosphate buffer (pH 6 5), 50 mM KCl, 1% DMSO, 0.1 μg/μl Bovine Serum Albumin (Takara Bio) or 0.05%-0.1% Tween-20, or 0.05%-0.1% Triton X-100 per probe. In addition, 10 μl solutions were mixed to make 100 μM compound if small compounds were included and incubated at room temperature for 10 minutes.\n(§2) The solutions were dispensed into a 384 well plate, and the plate was kept in a qPCR machine (manufactured by CFX 384 Touch (Bio-Rad Co., Ltd.) for 15 seconds after the temperature was raised to 95° C., which was rapidly cooled to 4° C. and kept for 2 minutes, and then kept at 25° C. for 5 minutes. Then, it was raised to over 95° C. about 40 minutes, and the fluorescence output was measured every 1° C. in 10 seconds. For numerical differentiation of the fluorescence output, a total of seven points from the measured temperature T to plus or minus 3° C. were approximated to a straight line by the least squares method, and the slope was defined as the slope (D1) at the point of the measured temperature T. Similarly, the value of D1 was again subjected to numerical differentiation in the same manner, and the slope (D2) at the point of the measured temperature T was obtained. Here, in parts where the D1 value was 10 or more, the measured temperature T_D1MAX was obtained with D1 at maximum. A total of seven points from this measured temperature T_D1MAX to plus and minus 3° C. were used to calculate the value of T_INF at Y=0 by setting X as T and Y as D2 when the seven points were actually approximated to the line by least squares, and this was set as the Tm value. In addition, the difference (Tm−Tm_NO) in the Tm value (Tm_NO) between wells containing the compound and wells without it was acquired as ΔTm.\n(§3) This work was carried out for single-probe wells and four-probe wells, respectively, to obtain the Tm and ΔTm values shown in Table 6 below."}, "TAR21-G3_Texas Red/BHQ2": {"tested_on": "TAR21-G3_Texas Red/BHQ2", "assay": "FRET probe Tm measurement, single probe and 4-probe mixture (Example 5)", "settings": "100 μM compound", "protocol": "• FRET probe with Texas Red at the 5′ end and BHQ2 modification at the 3′ end\nas §1, §2, §3"}, "FMNA_Alexa532/BHQ1": {"tested_on": "FMNA_Alexa532/BHQ1", "assay": "FRET probe Tm measurement, single probe and 4-probe mixture (Example 5)", "settings": "100 μM compound", "protocol": "• FRET probe with HEX-equivalent Alexa 532 at the 5′ end and BHQ1 modification at the 3′ end\nas §1, §2, §3"}, "[1]": {"tested_on": "A-4-G_Cy5/BHQ2, MGA-N_FAM/BHQ1, FMNA_Alexa532/BHQ1, TAR21-G3_Texas Red/BHQ2", "assay": "FRET probe Tm measurement, summary over four probes (Example 5)", "settings": "both single probes and mixed probes; 100 μM compound", "protocol": "(§4) Four FRET probes with fluorescent modifications corresponding to four wavelengths detectable by a measuring device (CFX384 Touch manufactured by Bio-Rad) were prepared. • FRET probe with Cy5 at the 5′ end and BHQ2 modification at the 3′ end\nas §1, with “minutes. […]” for “minutes.”"}, "A-4-G_Cy5/BHQ2": {"tested_on": "A-4-G_Cy5/BHQ2", "assay": "FRET probe Tm measurement, single probe and 4-probe mixture (Example 5)", "settings": "100 μM compound", "protocol": "as §4, §1, §2, §3"}, "[2]": {"tested_on": "Survivin-native+ type probe (Cy5/BHQ2)", "assay": "FRET probe Tm measurement with single compounds and compound mixture (Example 6)", "settings": "for ΔTm: 100 μM compound per compound, 50 nM RNA", "protocol": "(§5) A-4-G_Cy5/BHQ2 probe and the Survivin-native+type probe modified with Cy5 at the 5′ end and BHQ2 at the 3′ end were prepared as shown in Examples 2 and 5.\n(§6) The final levels were 50 nM RNA, 20 mM phosphate buffer (pH 6 5), 50 mM KCl, 1% DMSO, 0.1 μg/μl Bovine Serum Albumin (Takara Bio), or 0.05%-0.1% Tween-20, or 0.05%-0.1% Triton X-100. Further, if a low-molecular weight compound was included, 10 μl solutions were mixed to give 100 μM compound per compound and incubated at room temperature for 10 minutes.\nas §2"}, "A-4-G_Cy5/BHQ2 probe": {"tested_on": "A-4-G_Cy5/BHQ2 probe", "assay": "FRET probe Tm measurement with single compounds and compound mixture (Example 6)", "settings": "for ΔTm: 100 μM compound per compound, 50 nM RNA", "protocol": "as §5, §6, §2"}, "[3]": {"settings": "4-probe mixture, FAM detection, 50 nM RNA per probe"}, "[4]": {"settings": "4-probe mixture, Texas Red detection, 50 nM RNA per probe"}, "[5]": {"settings": "4-probe mixture, HEX detection, 50 nM RNA per probe"}, "[6]": {"settings": "4-probe mixture, Cy5 detection, 50 nM RNA per probe"}}, "data": [{"smiles": "O=C(O)c1cn(C2CC2)c2cc(N3CCNCC3)c(F)cc2c1=O", "note": "[CPFX, ciprofloxacin]", "values": [{"measurement": "Tm (° C.) with compound", "setting": "MGA-N_FAM/BHQ1; [3]", "result": 74.22, "unit": "°C"}, {"measurement": "ΔTm (° C.)", "setting": "MGA-N_FAM/BHQ1; [3]", "result": 0.11, "unit": "°C"}, {"measurement": "Tm (° C.) with compound", "setting": "MGA-N_FAM/BHQ1; Single probe, 50 nM RNA", "result": 74.03, "unit": "°C"}, {"measurement": "ΔTm (° C.)", "setting": "MGA-N_FAM/BHQ1; Single probe, 50 nM RNA", "result": 0.33, "unit": "°C"}, {"measurement": "Tm (° C.) with compound", "setting": "TAR21-G3_Texas Red/BHQ2; [4]", "result": 85.75, "unit": "°C"}, {"measurement": "ΔTm (° C.)", "setting": "TAR21-G3_Texas Red/BHQ2; [4]", "result": "−0.02", "unit": "°C"}, {"measurement": "Tm (° C.) with compound", "setting": "TAR21-G3_Texas Red/BHQ2; Single probe, 50 nM RNA", "result": 85.80, "unit": "°C"}, {"measurement": "ΔTm (° C.)", "setting": "TAR21-G3_Texas Red/BHQ2; Single probe, 50 nM RNA", "result": 0.07, "unit": "°C"}, {"measurement": "Tm (° C.) with compound", "setting": "FMNA_Alexa532/BHQ1; [5]", "result": 78.07, "unit": "°C"}, {"measurement": "ΔTm (° C.)", "setting": "FMNA_Alexa532/BHQ1; [5]", "result": "−0.02", "unit": "°C"}, {"measurement": "Tm (° C.) with compound", "setting": "FMNA_Alexa532/BHQ1; Single probe, 50 nM RNA", "result": 78.03, "unit": "°C"}, {"measurement": "ΔTm (° C.)", "setting": "FMNA_Alexa532/BHQ1; Single probe, 50 nM RNA", "result": 0.09, "unit": "°C"}, {"measurement": "Tm increase (in words)", "setting": "[1]", "result": "Tm increase was obtained only at wavelengths corresponding to A-4-G_Cy5/BHQ2"}, {"measurement": "Tm (° C.) with compound", "setting": "A-4-G_Cy5/BHQ2; [6]", "result": 68.96, "unit": "°C"}, {"measurement": "ΔTm (° C.)", "setting": "A-4-G_Cy5/BHQ2; [6]", "result": 1.46, "unit": "°C"}, {"measurement": "Tm (° C.) with compound", "setting": "A-4-G_Cy5/BHQ2; Single probe, 50 nM RNA", "result": 68.78, "unit": "°C"}, {"measurement": "ΔTm (° C.)", "setting": "A-4-G_Cy5/BHQ2; Single probe, 50 nM RNA", "result": 1.41, "unit": "°C"}]}, {"smiles": "CC1CCc2c(N3CCC(O)CC3)c(F)cc3c(=O)c(C(=O)O)cn1c23", "note": "(centres unmarked) [NDFX, nadifloxacin]", "values": [{"measurement": "change of Tm value (in words)", "setting": "[2]", "result": "does not cause changes in the Tm value"}, {"measurement": "ΔTm", "setting": "[2]; Table 7, SV-NL", "result": 0.01}, {"measurement": "ΔTm", "setting": "[2]; rounded", "result": 0.0, "unit": "°C"}, {"measurement": "change of Tm value (in words)", "setting": "A-4-G_Cy5/BHQ2 probe", "result": "does not cause changes in the Tm value"}, {"measurement": "ΔTm", "setting": "A-4-G_Cy5/BHQ2 probe; Table 7, A-4-G", "result": 0.15}, {"measurement": "ΔTm", "setting": "A-4-G_Cy5/BHQ2 probe; rounded", "result": 0.2, "unit": "°C"}]}]}
